These results are taken from US20210007356A1, “IMIDE DERIVATIVE AND FUNGICIDE CONTAINING SAID DERIVATIVE AS ACTIVE INGREDIENT” (HOKKO CHEMICAL INDUSTRY CO., LTD., priority 2018, published 2021).

Each structure is given as a SMILES string. Read-outs that look alike come from different tables or passages of the source.

For assay [1], the system named is rice sheath blight fungus (Thanatephorus cucumeris). The assay can be described thus: Test Example 8: control effect against rice sheath blight by box treatment (granule). To be noted: 5 g of granule on nursery box, paddy rice; inoculated after 3 weeks; 7 days after inoculation.
Source text: Control value (%)=[1−(lesion height in sprayed plot/lesion height in unsprayed plot)]×100 (d)
From the top of a nursery box, 5 g of a granule prepared according to Formulation Example-4 was applied to a 2.5-leaf-stage paddy rice (variety: Asahi) seedling raised using a nursery box ( 1/10 the area of standard nursery box in size: 12 cm×15 cm×height 4 cm) within a greenhouse. The formulation-treated paddy rice seedling was immediately transplanted at 5 seedlings/pot into a pot ( 1/10000 are in size) filled with paddy soil (flooded). After growing for 3 weeks within a greenhouse, a culture of rice sheath blight fungus (Thanatephorus cucumeris) grown in advance on a rice straw medium was inoculated into the root of the formulation-treated paddy rice, and disease development was promoted in an artificial weather chamber at 26° C. (relative humidity=100%). Seven days after the inoculation, the rice sheath blight lesion height (height from the root) was examined, and the control value (%) was calculated according to formula (d). […] This test was performed with three replications, each consisting of one plot and one pot, per one formulation plot, and its average evaluation value of control effect was determined.
Assay [2] deals with barley powdery mildew fungus (Erysiphe graminis). The assay can be described thus: Test Example 2: control effect against barley powdery mildew by foliage application. Type of assay: in vivo. To be noted: wettable powder diluted to 100 ppm, 10 mL per pot foliage spray on barley; inoculated day after; 7 days after inoculation.
Assay [3] deals with rice blast fungus (Pyricularia grisea). Type of assay: in vivo. To be noted: 5 g of granule on nursery box, paddy rice; inoculated after 3 weeks; 7 days after inoculation.
For assay [4] the test system is unchanged. It counts as in vivo. To be noted: flowable 1,000 ppm, 1 mL dripped in paddy water, inoculated after 1 week, 7 days after inoculation.
Assay [5] has the same test system. It counts as in vivo. To be noted: flowable 5,000 ppm, 50 mL irrigation of nursery box, paddy rice; inoculated after 3 weeks; 7 days after inoculation.
The test system of assay [6] is rice sheath blight fungus (Thanatephorus cucumeris). The assay can be described thus: Test Example 10: control effect against rice sheath blight by water surface application (flowable formulation). To be noted: flowable 1,000 ppm, 1 mL dripped in paddy water, inoculated after 1 week, 7 days after inoculation.
Assay [7] shares this test system. The assay can be described thus: Test Example 6: control effect against rice sheath blight by box treatment (flowable formulation). To be noted: flowable 5,000 ppm, 50 mL irrigation of nursery box, paddy rice; inoculated after 3 weeks; 7 days after inoculation.

With `CC(C)CC(C)c1ccccc1N(C(=O)c1cn(C)nc1C(F)F)C(=O)c1scnc1C(F)F` (stereo not shown) [1-341], the “evaluation value of control effect (from control value, lesion height)” value in assay [1], in assay [6] and in assay [7] was 5 throughout. Also, in assay [2], the “evaluation value of control effect (from control value, lesion area percentage)” value is recorded as 4. Besides, the “evaluation value of control effect (from control value, number of lesions)” value in assay [3], in assay [4] and in assay [5] was 5 throughout.
Regarding `Cc1nc(C(F)F)c(C(=O)N(C(=O)c2sc(C)nc2C(F)F)c2cccc3c2C(C)OC3(C)C)s1` (stereo not shown) [26-78], the “evaluation value of control effect (from control value, lesion height)” value in assay [1], in assay [6] and in assay [7] was 5 throughout. For the same molecule, in assay [2], the “evaluation value of control effect (from control value, lesion area percentage)” value is 4. The “evaluation value of control effect (from control value, number of lesions)” value in assay [3], in assay [4] and in assay [5] was 5 in each case.
Turning to `Cc1nc(C(F)(F)F)c(C(=O)N(C(=O)c2scnc2C(F)F)c2c(Br)cc(OC(F)(F)F)cc2Br)s1` [7-283], the “evaluation value of control effect (from control value, lesion height)” value in assay [1], in assay [6] and in assay [7] was 5 throughout. For the same molecule, the “evaluation value of control effect (from control value, lesion area percentage)” value in assay [2] is 4. In addition, the “evaluation value of control effect (from control value, number of lesions)” value in assay [3], in assay [4] and in assay [5] was 5 throughout.
With `CC(C)CCc1ccccc1N(C(=O)c1cn(C)nc1C(F)F)C(=O)c1snc(Cl)c1Cl` [1-34], the “evaluation value of control effect (from control value, lesion height)” value in assay [1], in assay [6] and in assay [7] was 5 throughout. The “evaluation value of control effect (from control value, lesion area percentage)” value in assay [2] was 4. Further, the “evaluation value of control effect (from control value, number of lesions)” value in assay [3], in assay [4] and in assay [5] was 5 each time.
As to `CC(C)CC(C)c1ccccc1N(C(=O)c1cc(Cl)c(Cl)s1)C(=O)c1cn(C)nc1C(F)F` (stereo not shown) [1-359], the “evaluation value of control effect (from control value, lesion height)” value in assay [1], in assay [6] and in assay [7] was 5 throughout. Besides, in assay [2], the “evaluation value of control effect (from control value, lesion area percentage)” value turned out to be 4. In addition, the “evaluation value of control effect (from control value, number of lesions)” value in assay [3], in assay [4] and in assay [5] was 5 in each case.
For `Cc1nnsc1C(=O)N(C(=O)c1cccnc1C(F)F)c1ccsc1C(C)CC(C)C` (stereo not shown) [18-8], the “evaluation value of control effect (from control value, lesion height)” value in assay [1], in assay [6] and in assay [7] was 5 throughout. Also, the “evaluation value of control effect (from control value, lesion area percentage)” value in assay [2] was 5. Further, the “evaluation value of control effect (from control value, number of lesions)” value in assay [3], in assay [4] and in assay [5] was 5 throughout.
Regarding `CC1OC(C)(C)c2cccc(N(C(=O)c3cn(C)nc3C(F)F)C(=O)c3onc(Cl)c3Cl)c21` (stereo not shown) [25-114], the “evaluation value of control effect (from control value, lesion height)” value in assay [1], in assay [6] and in assay [7] was 5 throughout. For the same molecule, the “evaluation value of control effect (from control value, lesion area percentage)” value in assay [2] amounted to 4. Further, the “evaluation value of control effect (from control value, number of lesions)” value in assay [3], in assay [4] and in assay [5] was 5 in each case.
